# Source: the Kinase Knowledgebase extract (Sharma et al. 2016)
# Target: MAPK14 (murine)
# Test: Inhibition of MAPK14 Kinase Activity
row,Compound,IC50
1,CC(C)(N)C#Cc1ccc(Cl)c(C(=O)c2ccc(Nc3ccc(F)cc3F)cc2)c1,6 nM
2,COc1ccc(CCC2(O)CCN(C)CC2)cc1C(=O)c1ccc(Nc2ccc(F)cc2F)cc1,51 nM
3,COc1ccc(/C=C/C2(O)CCN(C)CC2)cc1C(=O)c1ccc(Nc2ccc(F)cc2F)cc1,1 nM
4,COc1cc2nc(C)[nH]c2cc1C(=O)c1ccc(Nc2ccc(F)cc2F)nc1,21 nM
5,COc1ccc(CCC(C)(C)O)cc1C(=O)c1ccc(Nc2ccc(F)cc2F)nc1,479 nM
6,COc1ccc(C#CC(C)(C)O)cc1C(=O)c1ccc(Nc2ccc(F)cc2F)nc1,54 nM
7,Cc1nc2cc(Cl)c(C(=O)c3ccc(Nc4ccc(F)cc4F)cc3)cc2[nH]1,0.7 nM
8,COc1cc2nc(C)[nH]c2cc1C(=O)c1ccc(Nc2ccc(F)cc2F)cc1,5 nM
9,COc1ccc(C#CC(C)(C)N)cc1C(=O)c1ccc(Nc2ccc(F)cc2F)cc1,14 nM
10,COc1ccc(CCC(C)(C)N)cc1C(=O)c1ccc(Nc2ccc(F)cc2F)cc1,113 nM
11,Cc1nc2cc(Cl)c(C(=O)c3ccc(Nc4ccc(F)cc4F)nc3)cc2[nH]1,8 nM
12,COc1ccc(C#CC(C)(C)N)cc1C(=O)c1ccc(Nc2ccc(F)cc2F)nc1,8 nM

# Now from value to compound:
row,IC50,Compound
1,300 nM,O=C(c1ccc(Nc2ccc(F)cc2F)nc1)c1cc(Br)ccc1Cl
2,19 nM,CC(C)(N)C#Cc1ccc(Cl)c(C(=O)c2ccc(Nc3ccc(F)cc3F)nc2)c1
3,11 nM,O=C(c1ccc(Nc2ccc(F)cc2F)cc1)c1ccccc1Cl
4,101 nM,O=C(c1ccc(Nc2ccc(F)cc2F)nc1)c1ccccc1Cl
5,160 nM,CC(C)(N)CCc1ccc(Cl)c(C(=O)c2ccc(Nc3ccc(F)cc3F)nc2)c1
6,38 nM,COc1ccccc1C(=O)c1ccc(Nc2ccc(F)cc2F)cc1
